In paper PMC7146574, “Efficacy of a Novel ACE-Inhibitory Peptide from Sargassum maclurei in Hypertension and Reduction of Intracellular Endothelin-1” (Nutrients, 2020):
pIC50: −log10 of the molar value. Residues, ends and D or L forms follow the SMILES beside them.

Assays:
[1] = system: ACE; parameters: method as in 5 sources, ref 8, 38 = [8]; PMID 30893907; doi:10.3390/md17030179; 8. Sun S. Xu X. Sun X. Zhang X. Chen X. Xu N. Preparation and Identification of ACE Inhibitory Peptides from the Marine Macroalga Ulva intestinalis Mar. Drugs 2019 17 179 10.3390/md17030179 PMC6471128 || [38]; doi:10.1016/j.jff.2015.10.025; 38. Forghani B. Zarei M. Ebrahimpour A. Philip R. Bakar J. Abdul-Hamid A. Saari N. Purification and characterization of angiotensin converting enzyme-inhibitory peptides derived from Stichopus horrens ||| ref 5, 9 = [5]; PMID 31108740; doi:10.1016/j.foodres.2019.03.035; 5. Zhao Y. Zhang L. Tao J. Chi C. Wang B. Eight antihypertensive peptides from the protein hydrolysate of Antarctic krill ( Euphausia superba ): Isolation, identification, and activity evaluation on h || [9]; PMID 30229250; doi:10.1039/C8FO00569A; 9. Ling Y. Sun L.P. Zhuang Y.L. Preparation and identification of novel inhibitory angiotensin-I-converting enzyme peptides from tilapia skin gelatin hydrolysates: Inhibition kinetics and molecular do ||| ref 38, 40 = [38]; doi:10.1016/j.jff.2015.10.025; 38. Forghani B. Zarei M. Ebrahimpour A. Philip R. Bakar J. Abdul-Hamid A. Saari N. Purification and characterization of angiotensin converting enzyme-inhibitory peptides derived from Stichopus horrens || [40]; PMID 29606478; doi:10.1016/j.foodchem.2018.02.107; 40. Tu M. Wang C. Chen C. Zhang R. Liu H. Lu W. Jing L. Du M. Identification of a novel ACE-inhibitory peptide from casein and evaluation of the inhibitory mechanisms Food Chem. 2018 256 98 104 10.101 ||| ref 41, 28 = [41]; doi:10.1016/j.lwt.2018.12.059; 41. Bhaskar B. Ananthanarayana L. Jamdar S. Purification, identification, and characterization of novel angiotensin I converting enzyme (ACE) inhibitory peptides from alcalase digested horse gram flou || [28]; doi:10.1016/j.jff.2017.03.008; 28. Lin K. Zhang L. Han X. Cheng D.Y. Novel angiotensin I-converting enzyme inhibitory peptides from protease hydrolysates of Qula casein: Quantitative structure-activity relationship modeling and mol ||| ref 25 = [25]; doi:10.1016/j.lwt.2016.08.047; 25. Wang X. Chen H. Fu X. Li S. Wei J. A novel antioxidant and ACE inhibitory peptide from rice bran protein: Biochemical characterization and molecular docking study LWT Food Sci. Technol. 2017 75 93; conditions: cited from earlier work; for pIC50: literature comparison
[2] = system: endothelin-1 (ET-1) in EA.hy926 cells; assay: Effects on intracellular endothelin-1 (ET-1), ELISA of growth medium; type: cell-based, human; conditions: captopril 1.0 mg/mL as comparison, 48 h
Description: In a humidified atmosphere with 5% CO2, the EA.hy926 cells (a permanent hybridoma of the human umbilical vein endothelial cells and human lung carcinoma cell line A549) grown in 96-well plates were cultured in DMEM containing non-essential amino acids (10 mg/mL), streptomycin (0.1 mg/mL), and fetal bovine serum (0.1 g/mL) at 37 °C [5]. The cells (1.0 × 10^5 cells mL^−1) were treated with the synthesized peptides (0.5–1.5 mg/mL) for 24 h, and then the MTT assay was used to measure the cytotoxicity levels of the peptides. Moreover, EA.hy926 cells seeded in another 96-well plate (1.0 × 10^5 cells mL^−1) were cultured in DMEM at 37 °C for 24 h, and then treated with synthesized peptides (1–2 mg/mL) for 48 h. After that, the ET-1 content of the growth medium in each well was quantified by the ET-1 Elisa kit according to the instructions. Cells in the blank group were not treated with samples, while the cells in the positive group were treated with captopril (1 mg/mL). The inhibition ability on ET-1 was calculated as follows:(1) Inhibition abliliy (%)=(CB−Cs)/CB×100% where CB was the ET-1 content of the growth medium in the blank group and CS was the ET-1 content of the growth medium treated with the samples.

[3] = system: spontaneously hypertensive rats (SHRs); assay: Antihypertensive effect in vivo, tail-cuff method; parameters: species or system rat; conditions: oral 50, 100 and 150 mg/kg body weight every day (Figure S3)
Description: Twenty male spontaneously hypertensive rats (SHRs; 11 weeks, 240 ± 20 g body weight) from Vital River Laboratory Animal Technology Co., Ltd. (Beijing, China) were randomly divided into five groups of four rats each: negative control, positive control, and high-, middle- and low- dosage groups. Normal diet and tap water were freely available. Rats in the high-, middle-, and low-dose groups were orally given the synthetic peptide (RWDISQPY) via gastric intubation at 150, 100, and 50 mg/kg/body weight once daily, respectively. Meanwhile, rats in the positive control were orally given captopril (14 mg/kg/body weight once daily), and rats in the negative control were just administrated saline (0.9%). The diastolic blood pressure (DBP) and systolic blood pressure (SBP) of the rats were measured by the tail-cuff method once a week. The heart rate was recorded simultaneously. The animal experiment was conducted in conformity with institutional guidelines for the care and use of laboratory animals in Shanxi Normal University (No. 20181003, 16 September 2018), Linfen, China. All of the rats received human care conforming to the National Institutes of Health Guide for Care and Use of Laboratory Animals (National Institute of Health Publication No. 85–23, revised).

Row | Compound | pIC50 [1] | ACE inhibition pattern [1] | also measured
1 | VSRHFASYAN | 3.68 | – | –
2 | PFPGPIPN | – | competitive | –
3 | QAGLSPVR | 4.19 | – | –
4 | NMAINPSKENLCSTFCK | 3.89 | – | –
5 | FGMPLDR | 3.66 | – | –
6 | GSAGY [literature peptide identified from horrens protein] | 3.15 | – | –
7 | C[C@H](CS)C(=O)N1CCC[C@H]1C(=O)O [captopril] | – | – | Effect on ET-1 secretion [2]: reduce ET-1 secretion
8 | CC[C@H](C)[C@H](NC(=O)[C@H](CC(=O)O)NC(=O)[C@H](Cc1c[nH]c2ccccc12)NC(=O)[C@@H](N)CCCNC(=N)N)C(=O)N[C@@H](CO)C(=O)N[C@@H](CCC(N)=O)C(=O)N1CCC[C@H]1C(=O)N[C@@H](Cc1ccc(O)cc1)C(N)=O [RWDISQPY] (H-RWDISQPY-NH2) | – | – | Effect on heart rate [3]: no side effect; Effect on normal increase in body weight [3]: no side effect
9 | TVGMTAKF | – | competitive | –
10 | QLLLQQ | – | competitive | –
